In data set [1] the test system is HLF cells. Briefly: Combination proliferation assay in HLF cells (Chou and Talalay). The format is cell-based. As to conditions: in combination with SSI-4.
Experimental: (§3) Cell lines were maintained in DMEM media supplemented with sodium pyruvate, HEPES, non-essential amino acids, 3% FBS and antibiotics. Cells were plated at 30,000 cells per well in 12-well plate and treated for 4-5 days at the indicated doses with SSI4 and sorafenib diluted in DMSO at 1:1000. Cell number was determined by using a Coulter Particle Counter.
Data set [2] deals with cMyc, survivin, cyclin D1, cleaved PARP, BIP. Nature of the data set: Western blot analysis of HCC cell lines. The data set is classed as cell-based. Here is the method: Cells were collected via scraping and lysed in RIPA extraction buffer containing protease inhibitor cocktail and phosphatase inhibitor. Protein concentrations were measured by bicinchoninic acid (BCA) assay and 30 μg were loaded on 4-12% Bis-Tris/MES gels and then transferred to 0.2 μm Immobilon-P membranes. The membranes were hybridized overnight at 4° C. with the following antibodies: SCD1, PARP, survivin, c-Myc, BIP and β-actin. Secondary species-specific horseradish peroxidase-labeled antibodies were from Jackson Immunoresearch. Detection was performed using Supersignal chemiluminescence kit.
On the technique in general: In western blotting, separated proteins are transferred to a membrane and probed.

Data set [3] concerns Normal human hepatocytes (HH) cells. Briefly: Proliferation assay in normal human hepatocytes. The data set is classed as cell-based. To be noted: 1 μM.
Data set [4] has as its system HCC cell lines. Nature of the data set: Proliferation assay in HCC cell lines. The format is cell-based.
Experimental: as §3
In data set [5] the test system is CX-003 CCA PDTX. Briefly: CX-003 CCA PDTX mouse model (c-Myc negative). The data set is classed as in vivo. As to conditions: 50 mg/kg oral daily. As to the method: (§1) Tissues were cut into 4×4×4 mm cubes and surgically implanted under anesthesia with 100 μl Matrigel into 4-6 week old athymic nude female mice. Tumors were measured 1 to 2 times per week using calipers and volumes calculated by […]*(L×W×H). Once tumors reached ˜100 mm3, either placebo or SSI-4 treatment was administered at 180, or 600 mg/kg in custom AIN76 animal chow by Research Diets, Inc. Based upon food consumption, the amount of SSI4 ingested was 20 mg/kg and 50 mg/kg, respectively. For the combination study, mice were administered either 10 mg/kg SSI4, 30 mg/kg sorafenib or both in Nutra-gel diet.

The subject of data set [6] is human (CX-004T2 and HUCCT1) cholangiocarcinoma (CCA) cell lines. Briefly: Proliferation of human CCA cell lines. The data set is classed as cell-based. To be noted: 0.1-1 μM, 5 day exposure.
The test system of data set [7] is PAX148 HCC PDTX. Briefly: PAX148 HCC PDTX mouse model. The format is in vivo. As to conditions: daily SSI-4 20-50 mg/kg oral, high LDHA model. As to the method:
as §1

A short description of data set [8]: Single dose pharmacokinetics in fasted male C57BL/6 mice (PO or IV). The format is in vivo, mouse. Here is the method:
(§2) Pharmacokinetic assessment was performed for SSI-4 administered to fasted male C57BL/6 mice either intravenously (IV) or by oral gavage (PO) in DMSO:PEG400:water (10:70:20) as a clear solution at 5 mg/mL (IV dosing), and 1.3 or 10 mg/mL (respectively for the PO dosing). Serum analysis was performed by LC-MS-MS. PK calculation settings were obtained using the Phoenix WinNonlin 6.3 program, using either the Noncompartmental model 201 (IV bolus input) or Noncompartmental model 200 (extravascular input). Microsomes were isolated from murine liver using Microsome Isolation Kit (BioVision). Each assay (100 μL) contained 50 μg of microsomes, 1 μL of DMSO (for no drug controls) or DMSO-solubilized SCD1 inhibitor, 1 mM reduced NADH, 60 µM coenzyme A, 1 mM ATP, 1 mM DTT, and 5 mM MgCl2 in 100 mM sodium phosphate buffer (pH 7.4). […] To quantify biotransformation of 13C18-stearoyl CoA to 13C18-oleoyl CoA for drug treatments relative to vehicle controls, supernatants were evaluated using the LC/MS2 acyl CoA quantitation method of Magnes et al. and adapting selected reaction monitoring (SRM) for isotope-labeled acyl CoAs. […] SRM signal areas for isotope-labeled acyl CoAs were measured relative to the heptadecanoyl CoA I.S. using XCalibur software, and percent enzyme inhibition determined by comparing 13C18-oleoyl CoA quantities between treatment and DMSO control assays. […]

The subject of data set [9] is LIV58 HCC PDTX. Briefly: LIV58 HCC PDTX mouse model. The format is in vivo. Here is the method: as §1
FFPE tissues were cut into 5 μm sections, deparaffinized, hydrated, antigen retrieved for 25 minutes at pH 6.0 and blocked for 5 minutes with Dako diluent. Immunostaining was done for 1 hour with either lamin A+C, SCD1, c-Myc, survivin, LDHA, ki67, and BIP primary antibodies. For detection, the Envision Dual Labeled Polymer kit (Dako) was used for 30 minutes for anti-species secondary antibodies and stained with DAB chromagen for 5 minutes. Then, lightly counterstained with Gill I hematoxylin for 30 seconds before dehydration and mounting. Images were obtained at 20× using an Aperio AT2 Scanscope. IHC scoring was done using an algorithm in the Imagescope software based upon signal intensity of weak (1+), moderate (2+) or strong staining (3+) with criteria of at least 20% positivity. H score was calculated based upon signal intensity (0-3) using the formula: [(1+%×1)+(2+%×2)+(3+%×3)].

Data set [10] relates to SSI-4 responsive HCC cells. Briefly: Soft agar colony formation assay. The format is cell-based. As to the method: Soft agar cultures were prepared by diluting 2× growth medium 1:1 in 1.5% Seaplaque GTG agarose with 1000 cells/plate in 6-well culture dishes. Colonies were stained with Giemsa after 3 weeks and colonies larger than 150 μm were counted using Image J software.

Data set [11] is described as follows: Seven day oral toxicity test in Sprague Dawley rats. The format is in vivo, rat. Here is the method:
Sprague dawley rats (6-8 weeks old M/F) were orally gavaged with SS1-4 at the indicated dose daily, for a duration of seven days. For each dose levels 3 male and 3 females were placed on study. Rats were clinically observed and weighed daily. On day 8 rats were euthanatized and blood was collected by cardiac puncture. Blood chemistry was measured by STAT Veterinary laboratory.

For data set [12], the target named is 468 kinases. Briefly: Full matrix kinome scan, binding to 468 kinases. Further details: species or system human. As to the method:
Kinome Scan was conducted by Lead Hunter Discovery Services

Data set [13] concerns the target T1, SCD1 (Mus musculus, UniProt P13516).
T1 construct: Each assay (100 μL) contained 50 μg of microsomes; from tissue; host or cells: mouse liver microsomes
T1 sequence (P13516 1-355): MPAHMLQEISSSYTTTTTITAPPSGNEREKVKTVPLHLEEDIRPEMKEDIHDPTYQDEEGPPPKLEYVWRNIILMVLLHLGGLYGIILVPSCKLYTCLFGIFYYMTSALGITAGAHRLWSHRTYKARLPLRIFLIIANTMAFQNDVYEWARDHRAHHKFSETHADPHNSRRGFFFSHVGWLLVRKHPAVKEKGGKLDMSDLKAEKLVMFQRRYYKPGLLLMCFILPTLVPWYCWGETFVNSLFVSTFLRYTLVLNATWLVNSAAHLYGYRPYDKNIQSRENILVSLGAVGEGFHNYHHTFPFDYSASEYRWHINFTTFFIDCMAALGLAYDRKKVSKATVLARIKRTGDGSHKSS
Briefly: Inhibition of oleoyl CoA biosynthesis by mouse liver microsomes (13C18-stearoyl CoA conversion, LC/MS). The format is biochemical. Here is the method: as §2, with “Magnes” left out
A general note: Liver microsomes are a subcellular fraction often used to study metabolism.

Data set [14] concerns SSI4 responsive HCC cells. Nature of the data set: Lipid assay, unsaturated fatty acids in HCC cells. The format is cell-based. To be noted: 1 μM, 48 hour treatment. As to the method: Cells were treated for 48 hours with 1 μM SSI4 and lipids from 8 million cells were extracted using the 1957 Folch Lipid Extraction method. Lipids were re-suspended in DMSO and analyzed using Cell Biolab's lipid quantitation assay kit. Borosilicate glass tubes and polypropylene tips and plates were used during the experiments. Samples were read at OD540 nm and were background corrected on a Spectramax M3 spectrophotometer.

The test system of data set [15] is mouse (M1-1a and M6-1b) cholangiocarcinoma (CCA) cell lines. Nature of the data set: Proliferation of mouse CCA cell lines. The format is cell-based. As to conditions: 0.1-1 μM, 5 day exposure.
In data set [16] the test system is HLE HCC mouse model. Briefly: HLE HCC mouse model, combination study. The format is in vivo. To be noted: 10 mg/kg SSI4, 30 mg/kg sorafenib or both. Here is the method: as §1

Consider three compounds from patent US11243207B2, “Assessing and treating cancer” (Mayo Foundation for Medical Education and Research, priority 2018, dated 2022).

pIC50: −log10 of the molar value.

The pIC50 is the negative decadic logarithm of the IC50, by convention in mol/L. Usually half-life stands for the time needed for the level to fall by half in the phase considered.

`CNC(=O)c1cc(Oc2ccc(NC(=O)Nc3ccc(Cl)c(C(F)(F)F)c3)c(F)c2)ccn1` [Regorafenib]: in data set [1], the “synergy by Chou and Talalay method” value is given as “exhibited synergy”.
As to `CNC(=O)c1ccnc(NC(=O)N2CCC(Oc3ccccc3Cl)CC2)c1` [SSI-4, 2-{[4-(2-Chlorophenoxy)piperidine-1-carbonyl]amino}-N-methylpyridine-4-carboxamide], in data set [2], the “ER stress (BIP)” value is “inducing”. Moreover, the “Wnt regulated genes (cMyc, survivin and cyclin D1) protein” value in data set [2] is “down-regulated”. Besides, the “apoptosis (cleaved PARP)” value in [2] was “inducing apoptosis”. In addition, the growth inhibition entry in [3] is recorded as “not growth inhibited”. In addition, the “proliferation response in HCC cells silenced for cMyc with shRNA” value in [4] (1 uM SSI-4, c-Myc 1657 shRNA) is “blunted response”. The values for the pIC50 in data set [4] (other (non-responsive) HCC cell lines) and in [13] were not above 5.00 and 8.72, respectively. The “antitumor response (tumor volume)” value is on record as “no response” in [5]; “highly sensitive” in data set [7]; approximately 30% in [9] (daily SSI-4 20-50 mg/kg oral, low LDHA model). For the same compound, the cell growth entry in data set [6] and in data set [15] was “growth inhibition” throughout. In addition, the half-life in [8] (male, C57BL/6, mouse, serum, following a single oral dose) was 180 to 240 min. Also, the oral bioavailability result in data set [8] (single dose, mice) is reported as “excellent oral bioavailability”. Further, the “BIP, biomarker of ER stress (IHC)” value in data set [9] (LIV58 tumors) is “upregulated”. In data set [9] (LIV58 tumors), the “Ki-67, survivin and cMyc (IHC)” value was “attenuated”. In [10], the “colony formation in soft agar” value is “decreased colony formation”. Further, the blood chemistries result in [11] (day 8) is reported as “in normal range”. In [11] (male or female rats, daily oral for seven days), the toxicity result was “Little to no toxicity”. In data set [11] (males, 300 mg/kg), this compound displayed a weight loss of 6%. Further, the “kinases found to bind (of 468)” value is listed as “none” in data set [12] (SSI-4 at 10 nM) and 1 in [12] (SSI-4 at 100 nM, kinase bound is CDKL2). In addition, the “levels of unsaturated fatty acids” value in data set [14] is “decreased”. In data set [16], the “in vivo tumor response over time” value is reported as “escape over time on therapy”.
`CNC(=O)c1cc(Oc2ccc(NC(=O)Nc3ccc(Cl)c(C(F)(F)F)c3)cc2)ccn1` [sorafenib, reference compound] gave a negative logarithm of the IC50 (pIC50) in data set [4] (all cell lines tested) of 5.19 to 5.77. In addition, the “in vivo tumor response over time” value in data set [16] is recorded as “escape over time on therapy”.
